Reference: patent US7175829B2, “Contrast-enhanced diagnostic imaging method for monitoring interventional therapies” (Epix Pharmaceuticals, Inc., priority 1997, dated 2007)

How the values were obtained:
Assay type in all cases: physicochemical
[1] = target: T1, human serum albumin (HSA) (Homo sapiens, UniProt P02768); assay: Relaxivity R1 at 20 MHz during thermal denaturation of 4.5% HSA solutions; details: 0.3 mM Gd-DTPA, 0.1 mM MS-325; for R1: 20 MHz, 4.5% HSA solution
Method: (§1) In these examples, the longitudinal relaxivities (R1, mM^−1 sec^−1) were monitored and obtained at 20 MHz by determining the relaxation rate (1/T1) of water protons in phosphate buffered saline (PBS, 150 mM NaCl, 10 mM phosphate, pH=7.4), in PBS solutions containing 4.5 wt % HSA, or in gels containing 4.5 wt % HSA and 1% Agar. The dependence of temperature on relaxivity (R1) was observed by varying the temperature of the samples with a circulating water bath and monitoring sample temperature with a thermocouple.
(§2) The following three samples were prepared in solutions of 4.5% HSA: (1) a control sample without a contrast agent; (2) a comparative sample with Gd-DTPA; and (3) a sample with MS-325. The samples with Gd-DTPA and MS-325 were prepared by adding an aqueous formulation (pH=7) comprising either Gd-DTPA or MS-325 to the 4.5% HSA solution.
The three samples were then used to monitor the thermal denaturation of the 4.5% HSA solutions. […] Each sample was then removed from the NMR and heated at 85° C. for 15 minutes to induce thermal denaturation of the HSA. Subsequently, the sample was returned to the NMR and T1 data was collected at this higher temperature.

[2] = target: T1, human serum albumin (HSA); assay: T1-weighted MRI at 1.0 Tesla of agar phantoms containing 4.5% HSA during thermal denaturation; details: for % Loss ROI: 1% agar, 4.5% HSA
Method: The following samples were prepared in 1% agar gels containing 4.5% HSA: (1) a control sample without a contrast agent; (2) a comparative sample with Gd-DTPA; and (3) a sample with MS-325. The contrast agents were added in an amount sufficient such that the concentration of Gd-DTPA and MS-325 were 0.3 mM Gd-DTPA and 0.1 mM MS-325, respectively. Such agar gels containing 4.5% HSA are referred to as “phantoms”.
Initial T1-weighted MRI scans (FISP-3D, TR=15, TE=4, alpha=30) at 1.0 Tesla of the agar phantoms were then obtained at a temperature of about 25° C.
The phantoms were then heated in a circulating water bath with additional T1-weighted MRI scans obtained over time.

[3] = target: T1, human serum albumin (HSA); assay: Relaxivity R1 at 20 MHz during ethanol denaturation of 4.5% HSA solutions; details: for R1 0.08 mM MS-325: 4.5% HSA, 37° C.
Method: as §1, §2
Absolute ethanol was then titrated to each of the samples. T1 data (and thus R1 data (=1/T1)) was collected at 20 MHz and 37° C. after each addition of ethanol.

T1 sequence (P02768 25-609): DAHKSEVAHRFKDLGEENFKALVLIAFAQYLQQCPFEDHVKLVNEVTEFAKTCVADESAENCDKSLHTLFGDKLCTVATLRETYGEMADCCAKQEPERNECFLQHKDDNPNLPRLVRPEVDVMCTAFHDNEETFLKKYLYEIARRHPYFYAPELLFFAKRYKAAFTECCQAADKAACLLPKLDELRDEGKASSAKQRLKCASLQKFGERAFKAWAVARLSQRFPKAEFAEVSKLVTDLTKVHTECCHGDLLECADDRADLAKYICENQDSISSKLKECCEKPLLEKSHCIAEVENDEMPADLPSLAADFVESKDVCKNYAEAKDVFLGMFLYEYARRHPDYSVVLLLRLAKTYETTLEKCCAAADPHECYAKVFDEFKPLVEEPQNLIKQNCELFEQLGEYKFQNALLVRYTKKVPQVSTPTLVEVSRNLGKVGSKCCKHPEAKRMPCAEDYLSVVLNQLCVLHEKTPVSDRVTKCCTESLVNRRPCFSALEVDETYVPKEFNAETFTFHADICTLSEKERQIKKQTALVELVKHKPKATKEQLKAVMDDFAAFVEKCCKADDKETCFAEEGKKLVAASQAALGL

Compound: O=C(O)CN(CCN(CC(=O)O)CC(COP(=O)(O)OC1CCC(c2ccccc2)(c2ccccc2)CC1)N(CC(=O)O)CC(=O)O)CC(=O)O (centres unmarked) [MS-325]
- R1 ([1]; 7.3 °C): 31.2 mM⁻¹ s⁻¹
- R1 ([1]; 11.7 °C): 33.4 mM⁻¹ s⁻¹
- R1 ([1]; 16.2 °C): 36.0 mM⁻¹ s⁻¹
- R1 ([1]; 20.6 °C): 38.6 mM⁻¹ s⁻¹
- R1 ([1]; 25.0 °C): 40.6 mM⁻¹ s⁻¹
- R1 ([1]; 29.5 °C): 42.0 mM⁻¹ s⁻¹
- R1 ([1]; 33.9 °C): 42.8 mM⁻¹ s⁻¹
- R1 ([1]; 38.4 °C): 42.4 mM⁻¹ s⁻¹
- R1 ([1]; 42.8 °C): 42.3 mM⁻¹ s⁻¹
- R1 ([1]; 47.3 °C): 41.3 mM⁻¹ s⁻¹
- R1 ([1]; 51.7 °C): 39.5 mM⁻¹ s⁻¹
- R1 ([1]; 56.2 °C): 37.5 mM⁻¹ s⁻¹
- R1 ([1]; 60.6 °C): 33.3 mM⁻¹ s⁻¹
- R1 ([1]; 85.0 °C, after heating at 85° C. for 15 minutes (HSA denatured)): 10.8 mM⁻¹ s⁻¹
- net loss in R1 after denatured samples cooled to physiological temperature ([1]; denatured samples cooled to 37° C.): 25 mM^−1 sec^−1
- loss in observed R1 during denaturation of the HSA ([1]; from immediately before denaturation (56.2° C.) to immediately after denaturation (85° C.)): 26.7 mM⁻¹ s⁻¹
- % Loss ROI ([2]; 0 min, 25.3 °C, 0.3 mM Gd-DTPA, 0.1 mM MS-325, 1.0 Tesla): 0.0000%
- % Loss ROI ([2]; 10 min, 29.6 °C, 0.3 mM Gd-DTPA, 0.1 mM MS-325, 1.0 Tesla): −4.4755%
- % Loss ROI ([2]; 20 min, 38.3 °C, 0.3 mM Gd-DTPA, 0.1 mM MS-325, 1.0 Tesla): −6.4144%
- % Loss ROI ([2]; 30 min, 45.0 °C, 0.3 mM Gd-DTPA, 0.1 mM MS-325, 1.0 Tesla): −11.241%
- % Loss ROI ([2]; 40 min, 53.0 °C, 0.3 mM Gd-DTPA, 0.1 mM MS-325, 1.0 Tesla): −26.153%
- % Loss ROI ([2]; 50 min, 64.7 °C, 0.3 mM Gd-DTPA, 0.1 mM MS-325, 1.0 Tesla): −49.262%
- % Loss ROI ([2]; 60 min, 72.8 °C, 0.3 mM Gd-DTPA, 0.1 mM MS-325, 1.0 Tesla): −69.499%
- % Loss ROI ([2]; 70 min, 87.1 °C, 0.3 mM Gd-DTPA, 0.1 mM MS-325, 1.0 Tesla): −76.469%
- % Loss ROI ([2]; 120 min, 35.5 °C (cooled after denaturation), 0.3 mM Gd-DTPA, 0.1 mM MS-325, 1.0 Tesla): −31.869%
- brightness of phantoms in initial T1-weighted MRI scans ([2]; about 25° C., 1.0 Tesla, versus phantoms with Gd-DTPA or 4.5% HSA alone): brighter
- loss in signal intensity after denaturation and cooling ([2]; denatured phantoms cooled to 37° C., 0.3 mM Gd-DTPA, 0.1 mM MS-325): 32%
- loss of signal intensity on thermal denaturation ([2]; phantoms heated above 50–60° C., 0.3 mM Gd-DTPA, 0.1 mM MS-325): 76%
- decrease/change in observed relaxivity during ethanol ablation ([3]; 4.5% HSA solutions, 0.31 mM Gd-DTPA, 0.08 mM MS-325, 37° C.): 33 mM⁻¹ s⁻¹
- R1 0.08 mM MS-325 ([3]; ethanol 0.0 %): 42.216 mM⁻¹ s⁻¹
- R1 0.08 mM MS-325 ([3]; ethanol 0.9 %): 40.848 mM⁻¹ s⁻¹
- R1 0.08 mM MS-325 ([3]; ethanol 1.9 %): 39.541 mM⁻¹ s⁻¹
- R1 0.08 mM MS-325 ([3]; ethanol 2.8 %): 38.423 mM⁻¹ s⁻¹
- R1 0.08 mM MS-325 ([3]; ethanol 3.7 %): 37.064 mM⁻¹ s⁻¹
- R1 0.08 mM MS-325 ([3]; ethanol 4.5 %): 36.375 mM⁻¹ s⁻¹
- R1 0.08 mM MS-325 ([3]; ethanol 5.4 %): 35.234 mM⁻¹ s⁻¹
- R1 0.08 mM MS-325 ([3]; ethanol 6.2 %): 34.576 mM⁻¹ s⁻¹
- R1 0.08 mM MS-325 ([3]; ethanol 7.1 %): 33.895 mM⁻¹ s⁻¹
- R1 0.08 mM MS-325 ([3]; ethanol 7.9 %): 33.099 mM⁻¹ s⁻¹
- R1 0.08 mM MS-325 ([3]; ethanol 8.7 %): 32.224 mM⁻¹ s⁻¹
- R1 0.08 mM MS-325 ([3]; ethanol 10.2 %): 31.689 mM⁻¹ s⁻¹
- R1 0.08 mM MS-325 ([3]; ethanol 11.7 %): 30.403 mM⁻¹ s⁻¹
- R1 0.08 mM MS-325 ([3]; ethanol 16.4 %): 26.939 mM⁻¹ s⁻¹
- R1 0.08 mM MS-325 ([3]; ethanol 22.8 %): 21.456 mM⁻¹ s⁻¹
- R1 0.08 mM MS-325 ([3]; ethanol 28.3 %): 17.428 mM⁻¹ s⁻¹
- R1 0.08 mM MS-325 ([3]; ethanol 33.1 %): 14.082 mM⁻¹ s⁻¹
- R1 0.08 mM MS-325 ([3]; ethanol 37.3 %): 11.187 mM⁻¹ s⁻¹
- R1 0.08 mM MS-325 ([3]; ethanol 41.0 %): 9.6943 mM⁻¹ s⁻¹
- R1 0.08 mM MS-325 ([3]; ethanol 44.2 %): 8.9506 mM⁻¹ s⁻¹
- R1 0.08 mM MS-325 ([3]; ethanol 47.2 %): 8.7970 mM⁻¹ s⁻¹
